These results are taken from ChEMBL document CHEMBL4610007, “Design and synthesis of boron-containing diphenylpyrimidines as potent BTK and JAK3 dual inhibitors” (Bioorg Med Chem, 2020).

For data set [1], the target named is Tyrosine-protein kinase BTK (Homo sapiens, UniProt Q06187).
Description: Inhibition of recombinant human His-tagged full length BTK expressed in baculovirus expression system using Ulight-Poly GT as substrate incubated for 2 hrs by Lanthascreen TR-FRET assay
Data set [2] addresses Tyrosine-protein kinase JAK1 (Homo sapiens, UniProt P23458). Briefly: Inhibition of recombinant human N-terminal GST-tagged JAK1 (850 to 1154 residues) expressed in baculovirus expression system using Ulight-Poly GT as substrate incubated for 2 hrs by Lanthascreen TR-FRET assay. In general terms: In TR-FRET formats the signal depends on donor and acceptor labels being close together.

Data set [3] has as its target Tyrosine-protein kinase JAK2 (Homo sapiens, UniProt O60674).
Description: Inhibition of recombinant human N-terminal His-tagged JAK2 (826 to 1132 residues) expressed in baculovirus expression system using Ulight-Poly GT as substrate incubated for 2 hrs by Lanthascreen TR-FRET assay
The test system of the next data set is OCI-Ly10. In words: cells. The following applies: Homo sapiens, OCI-Ly10, 72 h.
Data set [4] concerns the target Non-receptor tyrosine-protein kinase TYK2 (Homo sapiens, UniProt P29597). Briefly: Inhibition of recombinant human N-terminal GST-tagged TYK2 (871 to 1187 residues) expressed in baculovirus expression system using Ulight-Poly GT as substrate incubated for 2 hrs by Lanthascreen TR-FRET assay.
Another data set concerns Raji. Briefly: cells. The note with it: Homo sapiens, 72 h.
The species entered for data set [5] is Homo sapiens. In words: Selectivity index, ratio of IC50 for recombinant human N-terminal GST-tagged TYK2 (871 to 1187 residues) expressed in baculovirus expression system to IC50 for recombinant human N-terminal His-tagged JAK3 (795 to 1124 residues) expressed in baculovirus expression system.
Data set [6] has as its target T1, Tyrosine-protein kinase JAK3 (Homo sapiens, UniProt P52333).
T1 sequence (P52333 whole entry): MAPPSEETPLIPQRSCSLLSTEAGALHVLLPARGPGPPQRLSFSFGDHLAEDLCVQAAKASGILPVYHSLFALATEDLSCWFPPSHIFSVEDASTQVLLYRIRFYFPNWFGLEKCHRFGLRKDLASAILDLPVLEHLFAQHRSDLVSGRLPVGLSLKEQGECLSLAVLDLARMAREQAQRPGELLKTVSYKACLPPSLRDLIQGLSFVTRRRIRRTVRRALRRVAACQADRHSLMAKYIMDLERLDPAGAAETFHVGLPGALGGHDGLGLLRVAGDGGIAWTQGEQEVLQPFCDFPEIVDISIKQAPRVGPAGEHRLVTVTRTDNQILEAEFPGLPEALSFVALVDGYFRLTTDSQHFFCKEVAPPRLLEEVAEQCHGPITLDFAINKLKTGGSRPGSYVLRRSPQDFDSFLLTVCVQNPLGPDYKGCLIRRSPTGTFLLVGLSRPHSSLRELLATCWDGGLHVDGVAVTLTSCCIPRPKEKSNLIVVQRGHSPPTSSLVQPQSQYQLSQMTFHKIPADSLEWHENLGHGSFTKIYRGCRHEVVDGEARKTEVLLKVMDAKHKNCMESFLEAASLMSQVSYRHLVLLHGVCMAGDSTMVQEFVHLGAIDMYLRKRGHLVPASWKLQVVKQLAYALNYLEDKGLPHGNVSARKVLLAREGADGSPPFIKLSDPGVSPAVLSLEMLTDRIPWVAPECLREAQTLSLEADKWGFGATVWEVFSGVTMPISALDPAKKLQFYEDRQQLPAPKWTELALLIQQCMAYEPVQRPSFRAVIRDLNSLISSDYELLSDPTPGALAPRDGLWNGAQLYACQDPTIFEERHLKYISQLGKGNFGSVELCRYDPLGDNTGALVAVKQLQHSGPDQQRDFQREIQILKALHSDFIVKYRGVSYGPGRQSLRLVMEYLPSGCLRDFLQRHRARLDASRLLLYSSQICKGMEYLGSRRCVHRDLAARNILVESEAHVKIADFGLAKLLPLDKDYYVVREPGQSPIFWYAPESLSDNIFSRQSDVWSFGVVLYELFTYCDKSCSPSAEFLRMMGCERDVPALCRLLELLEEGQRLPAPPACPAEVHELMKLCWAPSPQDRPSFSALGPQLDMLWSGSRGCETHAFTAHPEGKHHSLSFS
Description: Inhibition of recombinant human N-terminal His-tagged JAK3 (795 to 1124 residues) expressed in baculovirus expression system using Ulight-Poly GT as substrate incubated for 2 hrs by Lanthascreen TR-FRET assay

In the next data set the test system is JeKo-1. In words: cells. The following applies: Homo sapiens, JeKo-1, 72 h.
A short description of data set [7]: in vitro. The following applies: human, liver microsomes. For orientation: Microsomes from liver hold many membrane-bound enzymes, among them those of drug oxidation.
Description: Metabolic stability in human liver microsomes assessed as compound remaining at 0.2 uM incubated for 60 mins by UPLC-MS/MS analysis
The test system of another data set is HEL. Briefly: cells. The note with it: Homo sapiens, 72 h.
Data set [8] in a line: in vitro. The following applies: human, liver microsomes. The source holds these as a separate data set.
The species named for data set [9] is Homo sapiens. Briefly: Selectivity index, ratio of IC50 for recombinant human N-terminal GST-tagged JAK1 (850 to 1154 residues) expressed in baculovirus expression system to IC50 for recombinant human N-terminal His-tagged JAK3 (795 to 1124 residues) expressed in baculovirus expression system.
Data set [10] in a line: in vitro. The note with it: human, liver microsomes. This is another data set of the same source.
For a further data set, the system named is Ramos. Briefly: cells. The following applies: Homo sapiens, 72 h.
The species entered for data set [11] is Homo sapiens. Briefly: Selectivity index, ratio of IC50 for recombinant human N-terminal His-tagged JAK2 (826 to 1132 residues) expressed in baculovirus expression system to IC50 for recombinant human N-terminal His-tagged JAK3 (795 to 1124 residues) expressed in baculovirus expression system.

Tyrosine-protein kinase JAK1, sequence (P23458 whole entry, the tested form may be a part): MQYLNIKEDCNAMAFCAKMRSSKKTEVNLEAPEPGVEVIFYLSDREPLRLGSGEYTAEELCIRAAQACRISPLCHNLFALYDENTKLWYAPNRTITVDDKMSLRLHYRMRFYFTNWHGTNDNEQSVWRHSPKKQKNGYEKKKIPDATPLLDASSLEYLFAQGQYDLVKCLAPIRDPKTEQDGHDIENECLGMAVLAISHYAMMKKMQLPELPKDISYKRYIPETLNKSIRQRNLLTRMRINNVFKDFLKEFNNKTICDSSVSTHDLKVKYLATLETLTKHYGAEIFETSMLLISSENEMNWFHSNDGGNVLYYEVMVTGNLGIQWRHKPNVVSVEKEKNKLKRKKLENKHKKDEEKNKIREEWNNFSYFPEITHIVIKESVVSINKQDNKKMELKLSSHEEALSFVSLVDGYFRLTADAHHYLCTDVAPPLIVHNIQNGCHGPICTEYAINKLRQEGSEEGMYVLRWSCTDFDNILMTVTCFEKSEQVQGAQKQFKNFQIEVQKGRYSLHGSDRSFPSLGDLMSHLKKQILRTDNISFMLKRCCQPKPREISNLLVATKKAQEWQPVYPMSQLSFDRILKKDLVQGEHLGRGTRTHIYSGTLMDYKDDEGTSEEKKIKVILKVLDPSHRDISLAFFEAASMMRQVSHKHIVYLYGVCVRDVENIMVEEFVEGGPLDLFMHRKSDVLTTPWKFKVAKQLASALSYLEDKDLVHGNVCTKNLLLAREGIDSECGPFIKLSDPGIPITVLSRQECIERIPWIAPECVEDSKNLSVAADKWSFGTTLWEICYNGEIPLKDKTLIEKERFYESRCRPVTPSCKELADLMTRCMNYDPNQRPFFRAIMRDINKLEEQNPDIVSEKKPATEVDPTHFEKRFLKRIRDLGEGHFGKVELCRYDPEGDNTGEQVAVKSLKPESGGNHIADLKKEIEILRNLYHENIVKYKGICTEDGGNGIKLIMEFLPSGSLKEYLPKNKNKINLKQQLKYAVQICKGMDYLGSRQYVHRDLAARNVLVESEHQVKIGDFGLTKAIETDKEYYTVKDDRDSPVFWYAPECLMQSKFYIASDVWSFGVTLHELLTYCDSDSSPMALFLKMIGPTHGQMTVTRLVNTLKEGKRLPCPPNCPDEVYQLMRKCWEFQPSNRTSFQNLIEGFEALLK
Tyrosine-protein kinase JAK2, sequence (O60674 whole entry): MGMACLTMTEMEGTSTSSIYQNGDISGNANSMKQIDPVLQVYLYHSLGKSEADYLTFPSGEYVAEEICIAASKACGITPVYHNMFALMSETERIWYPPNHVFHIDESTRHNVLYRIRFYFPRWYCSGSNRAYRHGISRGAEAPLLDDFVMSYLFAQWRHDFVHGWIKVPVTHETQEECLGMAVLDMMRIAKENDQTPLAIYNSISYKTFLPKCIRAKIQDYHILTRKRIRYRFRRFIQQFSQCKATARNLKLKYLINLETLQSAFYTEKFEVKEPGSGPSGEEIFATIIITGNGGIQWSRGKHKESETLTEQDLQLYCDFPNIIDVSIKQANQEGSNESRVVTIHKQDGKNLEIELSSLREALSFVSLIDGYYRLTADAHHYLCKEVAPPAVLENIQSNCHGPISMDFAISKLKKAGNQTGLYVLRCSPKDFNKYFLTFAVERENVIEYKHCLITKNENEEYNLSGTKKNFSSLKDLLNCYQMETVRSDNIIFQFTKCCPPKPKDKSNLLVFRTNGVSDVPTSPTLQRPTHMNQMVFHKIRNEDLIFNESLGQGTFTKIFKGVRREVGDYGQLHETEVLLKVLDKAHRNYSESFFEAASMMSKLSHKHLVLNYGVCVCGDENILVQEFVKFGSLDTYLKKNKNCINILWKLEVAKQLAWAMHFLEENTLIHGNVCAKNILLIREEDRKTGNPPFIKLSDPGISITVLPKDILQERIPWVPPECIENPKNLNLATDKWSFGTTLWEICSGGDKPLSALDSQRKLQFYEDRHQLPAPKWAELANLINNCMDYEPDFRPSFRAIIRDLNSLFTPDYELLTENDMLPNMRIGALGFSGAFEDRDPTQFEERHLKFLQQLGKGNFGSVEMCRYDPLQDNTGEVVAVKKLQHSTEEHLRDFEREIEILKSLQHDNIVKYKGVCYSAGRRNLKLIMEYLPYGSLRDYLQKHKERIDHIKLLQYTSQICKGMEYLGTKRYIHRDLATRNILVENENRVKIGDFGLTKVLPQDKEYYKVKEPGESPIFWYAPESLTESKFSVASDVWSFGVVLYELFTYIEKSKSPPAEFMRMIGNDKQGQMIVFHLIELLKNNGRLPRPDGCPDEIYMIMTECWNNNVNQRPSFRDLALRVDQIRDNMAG
Tyrosine-protein kinase BTK, sequence (Q06187 whole entry, the tested form may be a part): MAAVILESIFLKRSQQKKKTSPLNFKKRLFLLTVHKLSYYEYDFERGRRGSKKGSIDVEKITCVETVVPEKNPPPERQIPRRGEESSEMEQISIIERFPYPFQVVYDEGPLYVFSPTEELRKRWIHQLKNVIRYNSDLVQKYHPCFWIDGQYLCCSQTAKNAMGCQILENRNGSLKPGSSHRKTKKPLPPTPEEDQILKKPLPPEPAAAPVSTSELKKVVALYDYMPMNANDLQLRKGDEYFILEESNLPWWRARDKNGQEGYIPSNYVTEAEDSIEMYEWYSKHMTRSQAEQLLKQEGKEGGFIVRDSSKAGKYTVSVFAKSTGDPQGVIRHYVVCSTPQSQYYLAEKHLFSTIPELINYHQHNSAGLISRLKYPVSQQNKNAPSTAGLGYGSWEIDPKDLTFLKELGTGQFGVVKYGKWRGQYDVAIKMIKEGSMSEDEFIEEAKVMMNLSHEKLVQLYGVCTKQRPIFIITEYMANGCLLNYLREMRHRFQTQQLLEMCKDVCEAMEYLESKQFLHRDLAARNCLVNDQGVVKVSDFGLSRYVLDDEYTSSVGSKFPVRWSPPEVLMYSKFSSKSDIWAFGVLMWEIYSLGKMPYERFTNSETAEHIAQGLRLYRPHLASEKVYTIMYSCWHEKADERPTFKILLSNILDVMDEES
Non-receptor tyrosine-protein kinase TYK2, sequence (P29597 whole entry, the tested form may be a part): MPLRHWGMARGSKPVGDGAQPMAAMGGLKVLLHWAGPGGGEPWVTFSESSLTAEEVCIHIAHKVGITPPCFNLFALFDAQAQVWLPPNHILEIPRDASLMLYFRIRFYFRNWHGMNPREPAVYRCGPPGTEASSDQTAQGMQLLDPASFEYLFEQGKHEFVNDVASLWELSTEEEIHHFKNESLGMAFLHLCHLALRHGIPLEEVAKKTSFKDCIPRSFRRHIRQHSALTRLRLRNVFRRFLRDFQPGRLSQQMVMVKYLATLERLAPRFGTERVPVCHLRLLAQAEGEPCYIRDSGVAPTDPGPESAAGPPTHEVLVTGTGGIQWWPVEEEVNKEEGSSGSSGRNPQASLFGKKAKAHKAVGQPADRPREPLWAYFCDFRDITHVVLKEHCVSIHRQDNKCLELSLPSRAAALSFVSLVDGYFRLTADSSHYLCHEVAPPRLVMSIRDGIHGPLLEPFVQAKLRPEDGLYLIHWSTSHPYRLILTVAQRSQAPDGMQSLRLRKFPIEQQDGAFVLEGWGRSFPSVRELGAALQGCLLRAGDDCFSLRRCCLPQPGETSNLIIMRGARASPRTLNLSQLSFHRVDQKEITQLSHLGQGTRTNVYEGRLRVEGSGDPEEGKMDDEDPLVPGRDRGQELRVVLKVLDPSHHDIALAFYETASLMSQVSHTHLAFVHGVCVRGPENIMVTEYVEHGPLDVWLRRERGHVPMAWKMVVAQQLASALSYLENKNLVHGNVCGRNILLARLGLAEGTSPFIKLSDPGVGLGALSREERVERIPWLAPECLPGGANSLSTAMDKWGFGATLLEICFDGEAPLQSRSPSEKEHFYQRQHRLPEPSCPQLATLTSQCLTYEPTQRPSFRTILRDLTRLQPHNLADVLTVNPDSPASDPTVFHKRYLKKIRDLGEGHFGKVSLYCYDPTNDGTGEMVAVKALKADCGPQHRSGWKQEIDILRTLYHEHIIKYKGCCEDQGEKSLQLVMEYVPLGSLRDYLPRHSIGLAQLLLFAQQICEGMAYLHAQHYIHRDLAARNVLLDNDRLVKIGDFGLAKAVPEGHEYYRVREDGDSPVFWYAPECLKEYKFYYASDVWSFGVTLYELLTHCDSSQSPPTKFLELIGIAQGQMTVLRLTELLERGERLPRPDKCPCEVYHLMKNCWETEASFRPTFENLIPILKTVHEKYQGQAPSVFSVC
Description for HEL: Antiproliferative activity against human HEL cells assessed as reduction in cell viability incubated for 72 hrs by CCK-8 assay
Description for JeKo-1: Antiproliferative activity against human JeKo1 cells assessed as reduction in cell viability incubated for 72 hrs by CCK-8 assay
Description for OCI-Ly10: Antiproliferative activity against human OCI-LY10 cells assessed as reduction in cell viability incubated for 72 hrs by CCK-8 assay
Description for Raji: Antiproliferative activity against human Raji cells assessed as reduction in cell viability incubated for 72 hrs by CCK-8 assay
Description for Ramos: Antiproliferative activity against human Ramos cells assessed as reduction in cell viability incubated for 72 hrs by CCK-8 assay

Regarding `C=CC(=O)Nc1cccc(Nc2nc(Nc3ccc4c(c3)B(O)OC4)ncc2F)c1`, half-maximal inhibition in data set [1] (IC50) required 0.0085 µM.

For `C=CC(=O)Nc1cccc(Oc2nc(Nc3ccc4c(c3)COB4O)ncc2C(F)(F)F)c1`, the IC50 in data set [1] came to 0.0065 µM.

On to `C=CC(=O)Nc1ccc(OC)c(Nc2nc(Nc3ccc4c(c3)B(O)OC4)ncc2C(F)(F)F)c1`, for which the IC50 in [1] was more than 1 µM.

Take `C=CC(=O)Nc1cccc(Nc2nc(Nc3cccc4c3COB4O)ncc2C(F)(F)F)c1`: in data set [1], the IC50 was 0.063 µM.

In data set [1], `C=CC(=O)Nc1cccc(Nc2nc(Nc3cccc(B(O)O)c3)ncc2C(F)(F)F)c1` came in with an IC50 of 0.0065 µM.

Take `C=CC(=O)Nc1cccc(Nc2nc(Nc3cccc4c3B(O)OC4)ncc2C(F)(F)F)c1`: the IC50 in data set [1] came out at 0.268 µM.

In the case of `C=CC(=O)Nc1cccc(Nc2nc(NNc3ccccc3)ncc2C(F)(F)F)c1`, the IC50 in [1] was more than 1 µM.

For the molecule `C=CC(=O)Nc1cccc(Nc2nc(Nc3ccc4c(c3)COB4O)ncc2C(F)(F)F)c1`, the IC50 in data set [2] was more than 1 µM; in [3], 0.658 µM; in the data set with OCI-Ly10, 1 to 10 µM; in data set [4] it was more than 1 µM; in data set [1] it was 0.0006 µM; in the data set with Raji, 1.7 µM. In addition, the half-inhibitory concentration (IC50) in [6] worked out at 0.0004 µM; in the data set with JeKo-1, 0.5 µM; with HEL, 1.1 µM; in the data set on Ramos it was 0.5 µM. The Ratio IC50 in the data set filed under Homo sapiens [5], in the data set filed under Homo sapiens [9] and in the data set listed under Homo sapiens [11] was more than 1000 each time. The share remaining at 1 h, 0.2 µM in the data set “in vitro [7]” was 47.2%. Further, the microsomal CLint at 1 h, 0.2 µM in “in vitro [8]” was found to be 23.6 µL/min/mg. The half-life at 1 h, 0.2 µM in “in vitro [10]” amounted to 58.8 min.

On to `C=CC(=O)N1CCCC(Nc2nc(Nc3ccc4c(c3)COB4O)ncc2C(F)(F)F)C1` (centres undefined), for which the IC50 in data set [1] was determined as 0.0368 µM.

As for `C=CC(=O)Nc1cccc(Nc2nc(Nc3ccc4c(c3)COB4O)ncc2OC)c1`, the IC50 in [1] worked out at 0.0082 µM.

With `C=CC(=O)Nc1cccc(Oc2nc(Nc3ccc4c(c3)COB4O)ncc2OC)c1`, the IC50 is more than 1 µM in data set [2]; more than 1 µM in data set [3]; more than 1 µM in data set [4]; 0.0017 µM in [1]; 0.0008 µM in [6]. Besides, the Ratio IC50 in the data set filed under Homo sapiens [5], in the data set listed under Homo sapiens [9] and in the data set listed under Homo sapiens [11] was more than 1000 throughout.

In the case of `C=CC(=O)Nc1cccc(Nc2nc(Nc3ccc4c(c3)B(O)OC4)ncc2C)c1`, the IC50 in [1] is 0.0061 µM.

On to `C=CC(=O)Nc1cccc(Nc2nc(Nc3ccc4c(c3)B(O)OCC4)ncc2C(F)(F)F)c1`, for which the IC50 in data set [2] was more than 1 µM; in data set [3] it was more than 1 µM; in data set [4], more than 1 µM; in [1], 0.0019 µM; in data set [6] it was 0.0015 µM. The Ratio IC50 in the data set filed under Homo sapiens [5], in the data set listed under Homo sapiens [9] and in the data set filed under Homo sapiens [11] was more than 1000 each time.

With `C=CC(=O)Nc1cccc(Nc2nc(Nc3ccc4c(c3)B(O)OC4)ncc2C(F)(F)F)c1`, the IC50 in [2] was more than 1 µM; in [3] it was 0.972 µM; in the data set on OCI-Ly10 it was more than 10 µM; in data set [4], more than 1 µM; in data set [1] it was 0.0029 µM; in the data set with Raji, 6.8 µM. The IC50 was found to be 0.0005 µM in data set [6], 1.2 µM in the data set with JeKo-1, 5.1 µM with HEL and 2.3 µM in the data set with Ramos. Further, the Ratio IC50 in the data set listed under Homo sapiens [5], in the data set listed under Homo sapiens [9] and in the data set listed under Homo sapiens [11] was more than 1000 each time. Further, the amount remaining at 1 h, 0.2 µM in “in vitro [7]” stood at 45%. The molecule further had a microsomal CLint at 1 h, 0.2 µM in the data set “in vitro [8]” of 24.8 µL/min/mg. The same molecule had a half-life at 1 h, 0.2 µM in the data set “in vitro [10]” of 55.9 min.

Take `C=CC(=O)Nc1cccc(Nc2nc(Oc3ccc4c(c3)B(O)OC4)ncc2C(F)(F)F)c1`: in [1], the half-inhibitory concentration (IC50) is more than 1 µM.

As to `C=CC(=O)Nc1cccc(Nc2nc(Nc3ccc4c(c3)B(O)OC4(C)C)ncc2C(F)(F)F)c1`, the IC50 in data set [2] was more than 1 µM; in [3], more than 1 µM; in [4] it was more than 1 µM; in data set [1], 0.002 µM; in data set [6] it was 0.001 µM. Also, the Ratio IC50 in the data set filed under Homo sapiens [5], in the data set filed under Homo sapiens [9] and in the data set listed under Homo sapiens [11] was more than 1000 in each case.

Take `C=CC(=O)Nc1cccc(Nc2nc(Nc3ccc4c(c3)B(O)OC4)ncc2Cl)c1`: the IC50 in data set [1] was determined as 0.0047 µM.

On to `C=CC(=O)Nc1cccc(Nc2nc(Nc3ccc(B(O)O)cc3)ncc2C(F)(F)F)c1`, for which the IC50 in data set [2] was more than 1 µM; in data set [3], 0.891 µM; in data set [4], more than 1 µM; in data set [1] it was 0.0015 µM; in data set [6] it was 0.0003 µM. The Ratio IC50 in the data set filed under Homo sapiens [5], in the data set listed under Homo sapiens [9] and in the data set filed under Homo sapiens [11] was more than 1000 each time.

Take `C=CC(=O)Nc1cccc(Nc2nc(Nc3ccc(OCCOC)cc3)ncc2F)c1` [SPEBRUTINIB]: the IC50 in [2] was more than 1 µM; in [3], 0.534 µM; with OCI-Ly10 it was more than 10 µM; in the data set on Raji it was 17.6 µM; in data set [6] it was 0.0085 µM; in the data set on JeKo-1, 1.3 µM. The values for the IC50 with HEL and in the data set with Ramos were 5.3 µM and 3.9 µM, respectively. In “in vitro [7]”, this molecule returned a share remaining at 1 h, 0.2 µM of 38.8%. In the data set “in vitro [8]”, the microsomal CLint at 1 h, 0.2 µM was determined as 31.9 µL/min/mg. Besides, in “in vitro [10]”, the half-life at 1 h, 0.2 µM is 43.4 min.

`CN(C)C/C=C/C(=O)Nc1cccc(Nc2nc(Nc3ccc4c(c3)COB4O)ncc2C(F)(F)F)c1` showed an IC50 in data set [1] of 0.0118 µM.

`C=CC(=O)Nc1cccc(Nc2nc(Nc3cc4c(cc3F)COB4O)ncc2C(F)(F)F)c1` displayed an IC50 in data set [1] of 0.156 µM.

The term IC50 denotes the concentration that inhibits the measured activity by half. One may read the share remaining as what is left of the initial amount, in per cent. Read a low share remaining as more turnover. The microsomal CLint is a measure of how fast metabolising enzymes remove a compound, apart from limits set by blood flow. A higher microsomal CLint goes with faster metabolism. By half-life is commonly meant how long it takes for the measured level to halve. Read a high half-life as slow decline.
